Values quoted from earlier work in patent US7045166B2, “Sweetener compositions containing fractions of inulin” (priority 1998, dated 2006).

Legend:
[1] = relative to sucrose (sugar)
[2] = artificial sweetener, general statement

Compound	sweetness of an equivalent dose of sucrose [1]	heat stability [2]
OC[C@H]1O[C@H](O[C@]2(CCl)O[C@H](CCl)[C@@H](O)[C@@H]2O)[C@H](O)[C@@H](O)[C@H]1Cl [Sucralose, sucralose]	600 times	heat stable
COC(=O)[C@H](Cc1ccccc1)NC(=O)[C@H](CC(=O)O)NCCC(C)(C)C [Neotane]	8000 times	–
